Assay results reported in ChEMBL document CHEMBL5335793, “PITB: A high affinity transthyretin aggregation inhibitor with optimal pharmacokinetic properties” (Eur J Med Chem, 2023).

Key:
[1] = Elimination rate constant in CD-1 mouse at 10 mg/kg, po measured for 24 hrs by UPLC-MS/MS analysis; format: ADME, organism-based; conditions: in vivo
[2] = Volume of distribution in CD-1 mouse at 10 mg/kg, po measured for 24 hrs by UPLC-MS/MS analysis; format: ADME, organism-based; conditions: in vivo
[3] = AUC (0 to 24 hrs) in CD-1 mouse at 10 mg/kg, po measured for 24 hrs by UPLC-MS/MS analysis; format: ADME, organism-based; design: time 24 hrs, dose 10 mg/kg, route po; conditions: in vivo
[4] = system: Transthyretin (Homo sapiens), P02766 [V50M]; assay: Binding affinity to TTR V30M mutant (unknown origin) expressed in Escherichia coli BL21(DE3) assessed as change in enthalpy at 100 uM by ITC analysis
[5] = system: Transthyretin (Homo sapiens), P02766 [V142I]; assay: Binding affinity to TTR V122I mutant (unknown origin) expressed in Escherichia coli BL21(DE3) assessed as change in enthalpy at 100 uM by ITC analysis
[6] = Clearance in CD-1 mouse at 10 mg/kg, po measured for 24 hrs by UPLC-MS/MS analysis; format: ADME, organism-based; conditions: in vivo
Transthyretin [7] = molecular target: T1, Transthyretin (Homo sapiens, UniProt P02766); assay: Binding affinity to wild-type TTR (unknown origin) expressed in Escherichia coli BL21(DE3) assessed as change in entropy at 100 uM by ITC analysis
[8] = system: Transthyretin (Homo sapiens), P02766 [V50M]; assay: Stabilization of TTR V30M mutant in human plasma assessed as degree of tetramer stability at 19.1 uM incubated overnight followed by urea addition measured after 5 hrs by isoelectric focusing based densitometry relative to control; format: cell-free
[9] = system: Transthyretin (Homo sapiens), P02766 [V50M]; assay: Binding affinity to TTR V30M mutant (unknown origin) expressed in Escherichia coli BL21(DE3) assessed as change in entropy at 100 uM by ITC analysis
Transthyretin [10] = molecular target: T1, Transthyretin; assay: Binding affinity to wild-type TTR (unknown origin) expressed in Escherichia coli BL21(DE3) assessed as change in enthalpy at 100 uM by ITC analysis
[11] = Half life in CD-1 mouse at 10 mg/kg, po measured for 24 hrs by UPLC-MS/MS analysis; format: ADME, organism-based; conditions: in vivo
[12] = Cmax in CD-1 mouse at 10 mg/kg, po measured for 24 hrs by UPLC-MS/MS analysis; format: ADME, organism-based; design: dose 10 mg/kg, time 24 hrs, route po; conditions: in vivo
[13] = system: Transthyretin (Homo sapiens), P02766 [V142I]; assay: Binding affinity to TTR V122I mutant (unknown origin) expressed in Escherichia coli BL21(DE3) assessed as change in entropy at 100 uM by ITC analysis
[14] = Tmax in CD-1 mouse at 10 mg/kg, po measured for 24 hrs by UPLC-MS/MS analysis; format: ADME, organism-based; conditions: in vivo

k el at 24 h [1]: 0.000139 s⁻¹
Vd [2]: 1.6 L/kg
AUC(0-t) at 24 h [3]: 11900 ng·h/mL
deltaH [4]: -13.8 kcal/mol
deltaH [5]: -12.2 kcal/mol
CL/F [6]: 13.3 mL/min/kg
-TdeltaS (Transthyretin [7]): 3.6 kcal/mol
Activity [8]: 4.9%
-TdeltaS [9]: 5.1 kcal/mol
deltaH (Transthyretin [10]): -13.6 kcal/mol
half-life [11]: 1.4 h
Cmax [12]: 7620 ng/mL
-TdeltaS [13]: 2.2 kcal/mol
Tmax [14]: < 0.25 h
SMILES: Cc1ccc(C(=O)c2cc(O)c(O)c([N+](=O)[O-])c2)cc1 [TOLCAPONE]
